Data from ChEMBL document CHEMBL1201862, “PubChem BioAssay data set” (2004).
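A five-concentration, 48-hour dose response in 96-well plates underlies each endpoint, interpolated linearly between surrounding concentrations. GI50: concentration for 50% inhibition of growth.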 Active and inactive are the calls of the source. Cut-off read from the data, not from the text of the source: active = GI50 up to about 1.1 µM and inactive = higher.

Columns and labels:
Experiment in all cases: inhibition of tumour cell growth, NCI panel, 48 h
SK-OV-3 = system: SK-OV-3
SF-268 = system: SF-268
HOP-62 = system: HOP-62
SK-MEL-5 = system: SK-MEL-5
UACC-62 = system: UACC-62
OVCAR-8 = system: OVCAR-8
KM12 = system: KM12
SK-MEL-2 = system: SK-MEL-2
COLO 205 = system: COLO 205
IGROV-1 = system: IGROV-1
HOP-92 = system: HOP-92
UO-31 = system: UO-31
SK-MEL-28 = system: SK-MEL-28
Malme-3M = system: Malme-3M
SN12C = system: SN12C
LOX IMVI = system: LOX IMVI
OVCAR-5 = system: OVCAR-5
CAKI-1 = system: CAKI-1

Measured: GI50

CN1C(=O)CC2(C)c3cc(C=O)ccc3N(C)C12 (stereo not given)
inactive: SK-OV-3 > 100 µM | SF-268 > 100 µM | HOP-62 > 100 µM | SK-MEL-5 > 100 µM | UACC-62 > 100 µM | OVCAR-8 > 100 µM | KM12 > 100 µM | SK-MEL-2 > 100 µM | COLO 205 > 100 µM | IGROV-1 > 100 µM | HOP-92 > 100 µM | UO-31 > 100 µM | SK-MEL-28 > 100 µM | Malme-3M > 100 µM | SN12C > 100 µM | LOX IMVI > 100 µM | OVCAR-5 > 100 µM

COC(=O)C1CCC(N2C(=O)CCC2C(=O)OC)=N1 (stereo not given)
inactive: SK-OV-3 > 100 µM | SF-268 > 100 µM | HOP-62 > 100 µM | UACC-62 > 100 µM | OVCAR-8 > 100 µM | CAKI-1 > 100 µM | KM12 > 100 µM | SK-MEL-2 > 100 µM | COLO 205 > 100 µM | IGROV-1 > 100 µM | HOP-92 > 100 µM | UO-31 > 100 µM | SK-MEL-28 > 100 µM | Malme-3M > 100 µM | SN12C > 100 µM | LOX IMVI > 100 µM | OVCAR-5 > 100 µM

CCOC(=O)NC(=O)c1cn(CCCCCOC(=O)NCCCCCCNC(=O)OCCCCCn2cc(C(=O)NC(=O)OCC)c(=O)[nH]c2=O)c(=O)[nH]c1=O
inactive: SK-OV-3 > 100 µM | SF-268 > 100 µM | HOP-62 > 100 µM | SK-MEL-5 > 100 µM | UACC-62 > 100 µM | OVCAR-8 > 100 µM | CAKI-1 > 100 µM | KM12 > 100 µM | SK-MEL-2 > 100 µM | COLO 205 > 100 µM | IGROV-1 > 100 µM | UO-31 > 100 µM | SK-MEL-28 > 100 µM | Malme-3M > 100 µM | SN12C > 100 µM | LOX IMVI > 100 µM

Cc1cc2c(c(C(N)=O)c1C)-c1cccc(F)c1C2=O
inactive: SK-OV-3 > 100 µM | SF-268 > 100 µM | HOP-62 > 100 µM | SK-MEL-5 > 100 µM | UACC-62 79.6 µM | OVCAR-8 > 100 µM | KM12 > 100 µM | SK-MEL-2 > 100 µM | COLO 205 > 100 µM | IGROV-1 > 100 µM | HOP-92 > 100 µM | UO-31 40.9 µM | SK-MEL-28 > 100 µM | Malme-3M > 100 µM | SN12C > 100 µM | LOX IMVI > 100 µM | OVCAR-5 > 100 µM

Brc1ccc2c(c1)C1C(CO2)C(c2ccccc2)=NN1c1ccccc1 (stereo not given)
inactive: SK-OV-3 > 100 µM | SF-268 > 100 µM | HOP-62 > 100 µM | OVCAR-8 > 100 µM | KM12 > 100 µM | SK-MEL-2 > 100 µM | COLO 205 > 100 µM | IGROV-1 > 100 µM | HOP-92 57.3 µM | UO-31 > 100 µM | SK-MEL-28 > 100 µM | Malme-3M > 100 µM | LOX IMVI > 100 µM | OVCAR-5 > 100 µM

O=C(N/N=C/c1ccccc1O)N/N=C/c1ccccc1O
inactive: SK-OV-3 > 100 µM | SF-268 > 100 µM | HOP-62 > 100 µM | UACC-62 > 100 µM | OVCAR-8 > 100 µM | SK-MEL-2 > 100 µM | COLO 205 > 100 µM | IGROV-1 > 100 µM | HOP-92 > 100 µM | UO-31 > 100 µM | SK-MEL-28 > 100 µM | Malme-3M > 100 µM | SN12C > 100 µM | LOX IMVI > 100 µM | OVCAR-5 > 100 µM

O=c1cc(/C=C/c2ccccc2)c2ccc(O/C(=C\c3ccccc3)c3nc4ccccc4c(=O)o3)cc2o1
inactive: SK-OV-3 39.4 µM | SF-268 11.8 µM | HOP-62 28 µM | SK-MEL-5 16.3 µM | UACC-62 24.7 µM | OVCAR-8 28.2 µM | CAKI-1 25.7 µM | KM12 15.7 µM | SK-MEL-2 25.6 µM | COLO 205 22.2 µM | IGROV-1 30.1 µM | HOP-92 15.7 µM | SK-MEL-28 13.8 µM | Malme-3M 31.3 µM | SN12C 26.3 µM | LOX IMVI 31.1 µM | OVCAR-5 44.9 µM

CC1=C(/C=C/C(C)=C/C=C/C(C)=C/C=C/C=C(C)/C=C/C=C(C)/C=C/C=C(C)/C=C/C=C(\C)C(=O)O)C(C)(C)CCC1
inactive: SK-OV-3 > 100 µM | SF-268 > 100 µM | HOP-62 > 100 µM | SK-MEL-5 > 100 µM | UACC-62 > 100 µM | OVCAR-8 > 100 µM | CAKI-1 > 100 µM | KM12 > 100 µM | SK-MEL-2 > 100 µM | COLO 205 > 100 µM | IGROV-1 > 100 µM | UO-31 > 100 µM | SK-MEL-28 > 100 µM | Malme-3M > 100 µM | SN12C > 100 µM | OVCAR-5 > 100 µM

O=c1[nH]c2c(O)cccc2c2cc3c(c(O)c12)OCO3 [NARCIPRIMINE]
inactive: SK-OV-3 23.6 µM | SF-268 23.2 µM | HOP-62 19.2 µM | SK-MEL-5 17.1 µM | UACC-62 18.3 µM | OVCAR-8 23.6 µM | CAKI-1 20.9 µM | KM12 16.7 µM | COLO 205 13.1 µM | IGROV-1 26.1 µM | HOP-92 13.4 µM | UO-31 17.1 µM | Malme-3M 22.8 µM | SN12C 20.7 µM | LOX IMVI 11 µM

C[C@]12CC[C@H](OC3CCCCO3)CC1=CC[C@@H]1C2CC[C@]2(C)/C(=N/O)CCC12 (stereo not given in full)
inactive: SK-OV-3 34.9 µM | HOP-62 > 100 µM | SK-MEL-5 88.9 µM | UACC-62 42.7 µM | OVCAR-8 19.2 µM | CAKI-1 40.6 µM | KM12 15.6 µM | SK-MEL-2 36.8 µM | COLO 205 > 10 µM | IGROV-1 > 100 µM | HOP-92 23.9 µM | UO-31 39.1 µM | SK-MEL-28 21.3 µM | Malme-3M 17.9 µM | SN12C 14.2 µM | LOX IMVI 13.8 µM | OVCAR-5 19.4 µM

CC1c2c(Cl)nc3ccccc3c2Oc2c1c(Cl)nc1ccccc21
inactive: SK-OV-3 > 100 µM | SF-268 > 100 µM | HOP-62 > 100 µM | SK-MEL-5 30.3 µM | OVCAR-8 85.7 µM | KM12 > 100 µM | SK-MEL-2 64.6 µM | COLO 205 > 100 µM | IGROV-1 > 100 µM | HOP-92 46.5 µM | UO-31 65 µM | SK-MEL-28 > 100 µM | Malme-3M > 100 µM | LOX IMVI > 100 µM | OVCAR-5 > 100 µM

Cc1nc2nn(Cc3ccccc3)cc2c(=O)o1
inactive: SF-268 > 100 µM | HOP-62 > 100 µM | SK-MEL-5 > 100 µM | UACC-62 > 100 µM | OVCAR-8 > 100 µM | KM12 > 100 µM | SK-MEL-2 > 100 µM | COLO 205 > 100 µM | IGROV-1 > 100 µM | UO-31 > 100 µM | Malme-3M > 100 µM | SN12C > 100 µM | LOX IMVI > 100 µM | OVCAR-5 > 100 µM
